Patent US6914045B2, “Glycopeptide antibiotics” (Wyeth Holdings Corporation, priority 2001, dated 2005)
≈ marks a conversion by molar mass, not a printed value.

Tests used:
[1] = tested on: Staphylococcus aureus-SMITH (GC 4543); assay: acute lethal infection in mice; format: in vivo; conditions: acute lethal infection, female CD-1 mice, intraperitoneal challenge, intravenous 30 min. after infection, 7 day survival
Experimental: Methods for in Vivo Antibacterial Evaluation
The therapeutic effects of glycopeptide antibiotics of Formula I are determined against acute lethal infections with S. aureus (strain Smith), a penicillin resistant strain of S. pneumoniae (strain GC 1894), and a vancomycin resistant strain of E. fecalis (strain GC 6189 and GC 2246). Female mice, CD-1 (Charles River Laboratories), 20+/−2 gm, are challenged by intraperitoneal injection of sufficient bacteria (suspended in /trypticase Soy Broth or hog gastric mucin) to kill non-treated controls within 24-48 hr. Antibacterial agents, contained in 0.2 mL of saline or 5% dextrose solution, are administered intravenously 30 min. after infection. Five mice are treated at each dose level. The 7 day survival ratios from 3 separate tests are pooled for calculation of median effective dose (ED50).

Escherichia coli = assay: in vitro antibacterial evaluation, MIC by broth dilution; format: cell-based; conditions: 18 hours at 35° C.
How it was run: (§1)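 Following National Committee for Clinical Laboratory Standards recommendations (M7-A2), susceptibility was measured by dilution in Muller-Hinton II […]. Bacteria were seeded at 5×10^5 CFU/mL against compound concentrations from 64 down to 0.06 μg/mL.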

Enterococcus sp. = assay: as above; format: cell-based; conditions: broth dilution, 18 hours at 35° C.
How it was run: as §1

Staphylococcus sp. = assay: as above; format: cell-based; conditions: broth dilution, 18 hours at 35° C.
How it was run: as §1

Streptococcus sp. = assay: as above; format: cell-based; conditions: broth dilution, 18 hours at 35° C.
How it was run: as §1

SMILES: CC(c1ccccc1)C1NC(=O)CNC(=O)C(CO)NC(=O)C(C(O)C2CNC(=N)N2C2OC(CO)C(O)C(O)C2O)NC(=O)C(C(O)C2CNC(=N)N2)NC(=O)C(Cc2ccc(OC3OC(CO)C(OC4OC5COC(Cc6ccc(Cl)cc6)OC5C(O)C4O)C(O)C3O)cc2)NC1=O (stereo not drawn) [Example 120, Cyclo[glycyl-β-methylphenylalanyl-O-[4-O-[4,6-O-(4-chlorophenethylidene)hexopyranosyl]-hexopyranosyl]tyrosyl-3-(2-iminoimidazolidin-4-yl)seryl-3-(3-hexopyranosyl-2-iminoimidazolidin-4-yl)serylseryl]]
- median effective dose (ED50), Staphylococcus aureus-SMITH (GC 4543) [1]: 0.06 mg/kg
- MIC Escherichia coli (ATCC 25922) (Escherichia coli; strain ATCC 25922): 16 mg/L (≈ 11.2 µM)
- MIC Escherichia coli (GC 4559) (Escherichia coli; strain GC 4559): 16 mg/L (≈ 11.2 µM)
- MIC Escherichia coli (GC 4560) (Escherichia coli; strain GC 4560): <0.5 mg/L
- MIC Enterococcus avium (GC 4558) (Enterococcus sp.; Enterococcus avium (GC 4558)): 1 mg/L (≈ 0.698 µM)
- MIC Enterococcus faecalis (ATCC 29212) (Enterococcus sp.; Enterococcus faecalis (ATCC 29212)): 1 mg/L (≈ 0.698 µM)
- MIC Enterococcus faecalis (GC 2242) (Enterococcus sp.; Enterococcus faecalis (GC 2242)): 1 mg/L (≈ 0.698 µM)
- MIC Enterococcus faecalis (GC 2691) (Enterococcus sp.; Enterococcus faecalis (GC 2691)): 1 mg/L (≈ 0.698 µM)
- MIC Enterococcus faecalis (GC 3059) (Enterococcus sp.; Enterococcus faecalis (GC 3059)): 1 mg/L (≈ 0.698 µM)
- MIC Enterococcus faecalis (GC 4552) (Enterococcus sp.; Enterococcus faecalis (GC 4552)): 1 mg/L (≈ 0.698 µM)
- MIC Enterococcus faecalis (GC 4553) (Enterococcus sp.; Enterococcus faecalis (GC 4553)): 1 mg/L (≈ 0.698 µM)
- MIC Enterococcus faecalis (GC 4554) (Enterococcus sp.; Enterococcus faecalis (GC 4554)): 1 mg/L (≈ 0.698 µM)
- MIC Enterococcus faecalis (GC 6189) (Enterococcus sp.; Enterococcus faecalis (GC 6189)): 1 mg/L (≈ 0.698 µM)
- MIC Enterococcus faecium (GC 2243) (Enterococcus sp.; Enterococcus faecium (GC 2243)): 1 mg/L (≈ 0.698 µM)
- MIC Enterococcus faecium (GC 4556) (Enterococcus sp.; Enterococcus faecium (GC 4556)): 1 mg/L (≈ 0.698 µM)
- MIC Enterococcus faecium (GC 4557) (Enterococcus sp.; Enterococcus faecium (GC 4557)): 1 mg/L (≈ 0.698 µM)
- MIC Enterococcus faecalis (ATCC 29212) (Enterococcus sp.; strain ATCC 29212): 1 mg/L (≈ 0.698 µM)
- MIC Enterococcus faecalis (GC 2242) (Enterococcus sp.; strain GC 2242): 1 mg/L (≈ 0.698 µM)
- MIC Enterococcus faecium (GC 2243) (Enterococcus sp.; strain GC 2243): 1 mg/L (≈ 0.698 µM)
- MIC Enterococcus faecalis (GC 2691) (Enterococcus sp.; strain GC 2691): 1 mg/L (≈ 0.698 µM)
- MIC Enterococcus faecalis (GC 3059) (Enterococcus sp.; strain GC 3059): 1 mg/L (≈ 0.698 µM)
- MIC Enterococcus faecalis (GC 4552) (Enterococcus sp.; strain GC 4552): 1 mg/L (≈ 0.698 µM)
- MIC Enterococcus faecalis (GC 4553) (Enterococcus sp.; strain GC 4553): 1 mg/L (≈ 0.698 µM)
- MIC Enterococcus faecalis (GC 4554) (Enterococcus sp.; strain GC 4554): 1 mg/L (≈ 0.698 µM)
- MIC Enterococcus faecium (GC 4556) (Enterococcus sp.; strain GC 4556): 1 mg/L (≈ 0.698 µM)
- MIC Enterococcus faecium (GC 4557) (Enterococcus sp.; strain GC 4557): 1 mg/L (≈ 0.698 µM)
- MIC Enterococcus avium (GC 4558) (Enterococcus sp.; strain GC 4558): 1 mg/L (≈ 0.698 µM)
- MIC Enterococcus faecalis (GC 6189) (Enterococcus sp.; strain GC 6189): 1 mg/L (≈ 0.698 µM)
- MIC Coagulase Negative Staphylococcus (GC 4547) (Staphylococcus sp.): 1 mg/L (≈ 0.698 µM)
- MIC Coagulase Negative Staphylococcus (GC 4548) (Staphylococcus sp.): <0.5 mg/L
- MIC Coagulase Negative Staphylococcus (GC 4549) (Staphylococcus sp.): <0.5 mg/L
- MIC Coagulase Negative Staphylococcus (GC 4551) (Staphylococcus sp.): <0.5 mg/L
- MIC Coagulase Negative Staphylococcus (GC 6257) (Staphylococcus sp.): <0.5 mg/L
- MIC Staphylococcus aureus (ATCC 29213) (Staphylococcus sp.): <0.5 mg/L
- MIC Staphylococcus aureus (GC 1131) (Staphylococcus sp.): <0.5 mg/L
- MIC Staphylococcus aureus (GC 3051) (Staphylococcus sp.): <0.5 mg/L
- MIC Staphylococcus aureus (GC 3053) (Staphylococcus sp.): 1 mg/L (≈ 0.698 µM)
- MIC Staphylococcus aureus (GC 4541) (Staphylococcus sp.): <0.5 mg/L
- MIC Staphylococcus aureus (GC 4542) (Staphylococcus sp.): <0.5 mg/L
- MIC Staphylococcus aureus (GC 4544) (Staphylococcus sp.): <0.5 mg/L
- MIC Staphylococcus aureus (GC 4545) (Staphylococcus sp.): <0.5 mg/L
- MIC Staphylococcus aureus-SMITH (GC 4543) (Staphylococcus sp.): <0.5 mg/L
- MIC Staphylococcus haemolyticus (GC 4546) (Staphylococcus sp.): <0.5 mg/L
- MIC Staphylococcus aureus (GC 1131) (Staphylococcus sp.; inoculum 5×10^5 CFU/mL, strain GC 1131): <0.5 mg/L
- MIC Staphylococcus aureus (ATCC 29213) (Staphylococcus sp.; strain ATCC 29213): <0.5 mg/L
- MIC Staphylococcus aureus (GC 3051) (Staphylococcus sp.; strain GC 3051): <0.5 mg/L
- MIC Staphylococcus aureus (GC 3053) (Staphylococcus sp.; strain GC 3053): 1 mg/L (≈ 0.698 µM)
- MIC Staphylococcus aureus (GC 4541) (Staphylococcus sp.; strain GC 4541): <0.5 mg/L
- MIC Staphylococcus aureus (GC 4542) (Staphylococcus sp.; strain GC 4542): <0.5 mg/L
- MIC Staphylococcus aureus (GC 4544) (Staphylococcus sp.; strain GC 4544): <0.5 mg/L
- MIC Staphylococcus aureus (GC 4545) (Staphylococcus sp.; strain GC 4545): <0.5 mg/L
- MIC Staphylococcus haemolyticus (GC 4546) (Staphylococcus sp.; strain GC 4546): <0.5 mg/L
- MIC Coagulase Negative Staphylococcus (GC 4547) (Staphylococcus sp.; strain GC 4547): 1 mg/L (≈ 0.698 µM)
- MIC Coagulase Negative Staphylococcus (GC 4548) (Staphylococcus sp.; strain GC 4548): <0.5 mg/L
- MIC Coagulase Negative Staphylococcus (GC 4549) (Staphylococcus sp.; strain GC 4549): <0.5 mg/L
- MIC Coagulase Negative Staphylococcus (GC 4551) (Staphylococcus sp.; strain GC 4551): <0.5 mg/L
- MIC Coagulase Negative Staphylococcus (GC 6257) (Staphylococcus sp.; strain GC 6257): <0.5 mg/L
- MIC Staphylococcus aureus-SMITH (GC 4543) (Staphylococcus sp.; strain SMITH GC 4543): <0.5 mg/L
- MIC Streptococcus agalactiae (GC 4564) (Streptococcus sp.; Streptococcus agalactiae (GC 4564)): <0.5 mg/L
- MIC Streptococcus pneumoniae (ATCC 6301) (Streptococcus sp.; Streptococcus pneumoniae (ATCC 6301)): <0.5 mg/L
- MIC Streptococcus pneumoniae (GC 1894) (Streptococcus sp.; Streptococcus pneumoniae (GC 1894)): <0.5 mg/L
- MIC Streptococcus pneumoniae (GC 4565) (Streptococcus sp.; Streptococcus pneumoniae (GC 4565)): <0.5 mg/L
- MIC Streptococcus pyogenes (GC 4563) (Streptococcus sp.; Streptococcus pyogenes (GC 4563)): <0.5 mg/L
- MIC Streptococcus pneumoniae (ATCC 6301) (Streptococcus sp.; strain ATCC 6301): <0.5 mg/L
- MIC Streptococcus pneumoniae (GC 1894) (Streptococcus sp.; strain GC 1894): <0.5 mg/L
- MIC Streptococcus pyogenes (GC 4563) (Streptococcus sp.; strain GC 4563): <0.5 mg/L
- MIC Streptococcus agalactiae (GC 4564) (Streptococcus sp.; strain GC 4564): <0.5 mg/L
- MIC Streptococcus pneumoniae (GC 4565) (Streptococcus sp.; strain GC 4565): <0.5 mg/L
